Experimental data published in patent US20100130612A1, “COMPOSITION CONTAINING CHITOSAN FOR SUSTAINED DRUG RELEASE” (THE JORDANIAN PHARMACEUTICAL MANUFACTURING CO., priority 2005, published 2010).

Assay: Solubility of acidic drugs in acidic media when combined with chitosan polymer solution
Format: physicochemical
Conditions: pH<5.0; combined with a respective chitosan polymer solution

SMILES | solubility in acidic media (in words)
CC(C)Cc1ccc(C(C)C(=O)O)cc1.[Na] (centres unmarked) [ibuprofen sodium] | soluble in acidic media
O=C(O)Cc1ccccc1Nc1c(Cl)cccc1Cl [diclofenac sodium] | soluble in acidic media
